Active and inactive are the calls of the source. The rule behind the calls is not given here.
Columns and labels:
[1] = target: T1, Tyrosine-protein phosphatase non-receptor type 1 (Homo sapiens, UniProt P18031); test: Inhibition of PTP1B (unknown origin) using pNPP substrate measured after 3 mins by colorimetric assay
T1 sequence (P18031 whole entry): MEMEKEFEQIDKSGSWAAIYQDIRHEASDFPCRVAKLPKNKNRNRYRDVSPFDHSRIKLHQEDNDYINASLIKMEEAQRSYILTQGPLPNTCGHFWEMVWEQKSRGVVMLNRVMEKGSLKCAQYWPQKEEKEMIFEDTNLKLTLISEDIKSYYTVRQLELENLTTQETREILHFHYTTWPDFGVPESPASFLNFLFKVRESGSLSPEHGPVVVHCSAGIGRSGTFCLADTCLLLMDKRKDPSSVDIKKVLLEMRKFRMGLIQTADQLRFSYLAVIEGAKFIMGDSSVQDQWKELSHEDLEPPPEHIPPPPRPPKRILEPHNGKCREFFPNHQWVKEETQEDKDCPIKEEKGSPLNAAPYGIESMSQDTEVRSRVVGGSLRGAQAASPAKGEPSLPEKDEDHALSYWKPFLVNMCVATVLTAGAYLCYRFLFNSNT

[2] = target: T2, Tyrosine-protein phosphatase non-receptor type 1 (Homo sapiens) (UniProt P18031); test: Inhibition of PTP1B (unknown origin) at 20 ug/ml using pNPP substrate measured after 3 mins by colorimetric assay
T2 sequence (whole entry): T1 sequence (P18031 whole entry)

[3] = target: T2, Tyrosine-protein phosphatase non-receptor type 1 (Homo sapiens); test: Competitive inhibition of PTP1B (unknown origin) assessed as increase in substrate Km at 1.5 to 6 uM using pNPP substrate by colorimetric method based Lineweaver-Burk plot method
[4] = target: T2, Tyrosine-protein phosphatase non-receptor type 1 (Homo sapiens); test: Fast-binding inhibition of PTP1B (unknown origin) using pNPP substrate by colorimetric method based enzyme kinetics assay
[5] = target: T2, Tyrosine-protein phosphatase non-receptor type 1 (Homo sapiens); test: Inhibition of PTP1B (unknown origin) using pNPP substrate by colorimetric method based enzyme kinetics assay; details: TDE = time-dependent effect
[6] = target: T2, Tyrosine-protein phosphatase non-receptor type 1 (Homo sapiens); test: Competitive inhibition of PTP1B (unknown origin) assessed as unchanged Vmax level at 1.5 to 6 uM using pNPP substrate by colorimetric method based Lineweaver-Burk plot method

`CC(C)=CCC/C(C)=C/Cc1c(O)ccc(C(=O)/C=C/c2ccc(O)cc2)c1O` [XANTHOANGELOL] gave an IC50 [1] of 5.02 µM and an inhibition [2] of 79.8%.
Molecule `O=c1cc(-c2ccc(O)c(O)c2)oc2cc(O[C@@H]3O[C@H](CO)[C@@H](O)[C@H](O)[C@H]3O)cc(O)c12` has an inhibition [2] of less than 50%.
Work on `COc1c2occc2cc2ccc(=O)oc12` yielded an inhibition [2] of less than 50%.
With `C/C=C(/C)C(=O)O[C@H]1[C@@H](O)c2c(ccc3ccc(=O)oc23)OC1(C)C` the inhibition [2] was less than 50%.
`C=C(C)C(=O)Cc1c(OC)ccc(C(=O)/C=C/c2ccc(O)cc2)c1O` was tested, and the inhibition [3] was “Active”, the inhibition [4] was “Active” and the IC50 [1] was 2.33 µM. The inhibition [5] was “tde”, the inhibition [6] was “Active” and the inhibition [2] was 85.2%.
Work on `C=C[C@@H](O)C#CC#C[C@@H](O)/C=C\CCCCCCC` [FALCARINDIOL] yielded an IC50 [1] of 31.6 µM and an inhibition [2] of 97.8%.
In the case of `COc1c2ccoc2cc2oc(=O)ccc12` [BERGAPTEN], the IC50 [1] is reported as 11.7 µM and the inhibition [2] is reported as 98.4%.
`O=c1c(O[C@@H]2OC[C@H](O)[C@H](O)[C@H]2O)c(-c2ccc(O)c(O)c2)oc2cc(O)cc(O)c12` showed an inhibition [2] of less than 50%.
`C/C=C(/C)C(=O)O[C@@H]1Cc2c(ccc3ccc(=O)oc23)OC1(C)C` [JATAMANSIN] showed an IC50 [1] of 35.2 µM and an inhibition [2] of 93.5%.
Work on `CCOC1c2c(OC)ccc(C(=O)/C=C/c3ccc(O)cc3)c2OC1C(C)(C)O` (centres undefined) yielded an IC50 [1] of 11.1 µM and an inhibition [2] of 91.9%.
Molecule `COc1ccc(C(=O)/C=C/c2ccc(O)cc2)c(O)c1C/C=C(\C)CCC=C(C)C` [XANTHOANGELOL F] has an IC50 [1] of 4.11 µM and an inhibition [2] of 96.8%.
Molecule `CC(C)C(=O)O[C@H]1Cc2c(ccc3ccc(=O)oc23)OC1(C)C` has an IC50 [1] of 30.3 µM and an inhibition [2] of 93.7%.
In the case of `COc1ccc(C(=O)/C=C/c2ccc(O)cc2)c2c1C(O)C(C(C)(C)O)O2` (centres undefined), the inhibition [2] is reported as less than 50%.
`C=C(C)C(Cc1c(OC)ccc(C(=O)/C=C/c2ccc(O)cc2)c1O)OO` (centres undefined) was tested, and the IC50 [1] was 3.86 µM and the inhibition [2] was 99.4%.
`C=C(C)C(O)Cc1c(OC)ccc(C(=O)/C=C/c2ccc(O)cc2)c1O` (centres undefined) [XANTHOANGELOL D] gave an IC50 [1] of 11.2 µM and an inhibition [2] of 96.8%.
Work on `COc1ccc(C(=O)/C=C/c2ccc(O)cc2)c(O)c1CC=C(C)C` yielded an IC50 [1] of 7.3 µM and an inhibition [2] of 86%.
With `COc1ccc(C(=O)/C=C/c2ccc(O)cc2)c2c1[C@H](O)[C@H](O)C(C)(C)O2` the inhibition [2] was less than 50%.
`CC1(C)Oc2ccc3ccc(=O)oc3c2[C@@H](O)[C@H]1O` (relative stereo) was tested, and the IC50 [1] was 39.7 µM and the inhibition [2] was 92.3%.
For `COc1ccc(C(=O)/C=C/c2ccc(O)cc2)c2c1[C@H](OC)[C@H](O)C(C)(C)O2`, the inhibition [2] was less than 50%.
In the case of `O=c1c(O[C@@H]2O[C@H](CO)[C@H](O)[C@H](O)[C@H]2O)c(-c2ccc(O)c(O)c2)oc2cc(O)cc(O)c12`, the inhibition [2] is reported as less than 50%.
Molecule `C[C@@H]1O[C@@H](Oc2c(-c3ccc(O)c(O)c3)oc3cc(O)cc(O)c3c2=O)[C@H](O)[C@H](O)[C@H]1O` [QUERCITRIN] has an IC50 [1] of 39 µM and an inhibition [2] of 64.4%.
`C/C=C(/C)C(=O)O[C@H]1c2c(ccc3ccc(=O)oc23)OC(C)(C)[C@H]1O` was tested, and the inhibition [2] was less than 50%.

— ChEMBL document CHEMBL3399989, “PTP1B inhibitors from stems of Angelica keiskei (Ashitaba)” (Bioorg Med Chem Lett, 2015)
